Measured values reported in EP4144350B1, “TREATMENT OR PREVENTION OF VASCULAR MALFORMATION” (Universitätsmedizin Greifswald, priority 2021, dated 2023).

What was measured:
Type in all cases: cell-based, human
[1] = system: CCM3^+/+ and CCM3^-/- CI-huVECs; experiment: Cell viability after compound treatment; conditions: for Cell viability differences between CCM3^+/+ and CCM3^-/- CI-huVECs: 72 h after treatment (Fig. 15)
CI-huVECs = experiment: Bright-field microscopy of EC morphology after compound treatment; conditions: library screening follow-up (Fig. 14)
[2] = system: CCM3^-/- CI-huVECs in co-culture with CCM3^+/+ CI-huVECs; experiment: Spike-in co-culture assay / apoptosis compound library screening: CCM3 knockout allele frequency by amplicon deep sequencing; conditions: for Knockout allele frequencies: 10 µM of each compound, six days, added 5 h and 3 days after seeding, DMSO-treated co-culture controls 33.5 %
Protocol: Clonally expanded CI-huVEC lines with biallelic loss-of-function variants in the first coding exon of CCM3 have been described before or were established according to a published CRISPR/Cas9 genome editing protocol. Blood outgrowth endothelial cells (BOECs) were cultured in EGM-2 medium (Lonza, Basel, Switzerland) supplemented with 18 % FCS. With the approval of the local ethics committee (University Medicine Greifswald, Germany; No.: BB 047/14a), CCM1^-/- BOECs had been established previously from CCM1^+/- BOECs of a CCM1 mutation carrier with CRISPR/Cas9 genome editing. Mutant and wild-type ECs were co-cultured in 96-well plates under standard culture conditions with the indicated mutant-to-wild-type ratios. 2500 cells were seeded per well.
An apoptosis compound library with 189 small molecules that target apoptosis, survival and proliferation was used in a high throughput screening approach (HY-L003[HY-LD-000001651]; MedChem Express, Monmouth Junction, NJ, USA). Co-cultures were treated with 10 µM of each substrate for six days. Compounds were added 5 h and 3 days after cell seeding.
NSC59984 (IUPAC: (2E)-1-(4-Methyl-1-piperazinyl)-3-(5-nitro-2-furyl)-2-propen-1-one, HY19726, MedChem Express), was used for individual experiments with the indicated concentrations.
The fraction of mutant alleles in co-culture were analysed by amplicon deep sequencing or T7EI cleavage assay. In brief, genomic target regions were first amplified by PCR. For T7E1 cleavage assays, heteroduplexes were formed and digested with T7EI enzyme (New England Biolabs, Frankfurt am Main, Germany). Cleavage products were visualised by gel electrophoresis and analysed with the Image Lab software (v6.0, Bio-Rad, Hercules, CA, USA). For NGS analysis, sequencing adapters and individual barcodes were introduced in a second round of PCR [7]. Sequencing libraries were pooled and sequenced on a MiSeq instrument with 2 x 150 cycles (Illumina, San Diego, CA, USA). The data were analysed with the SeqNext software (JSI Medical Systems, Ettenheim, Germany).

caspase-3 = experiment: Caspase-3 activity assay
Protocol: The proliferation rate of mutant and wild-type ECs in monoculture was quantified with the CyQuant® Cell Proliferation Assay Kit (C7026, Thermo Fisher Scientific). To discriminate the proliferation rates of CCM3^+/+ and CCM3^-/- CI-huVEC in co-culture, the CyQuant® Cell Proliferation Assay results were combined with mutant allele frequencies that had been determined by amplicon deep sequencing. To analyse their sensitivity to apoptosis, mutant and wild-type ECs were seeded in 96-well plates with 15.000 cells per well, and treated with staurosporine (S440, Sigma-Aldrich, St. Louis, MO, USA) 24 h later. The Caspase-3 DEVD-R110 Fluorometric HTS Assay Kit (30009, Biotium, Fremont, CA, USA), the Cell Meter™ Caspase 8 Activity Apoptosis Assay Kit (22798, AAT Bioquest, Sunnyvale, CA, USA), and the Cell Meter™ Caspase 9 Activity Apoptosis Assay Kit (22799, AAT Bioquest) were used following the manufacturer's instructions.

| Caspase-3 activities (caspase-3; treatment for 24 h, CCM3^+/+ and CCM3^-/- CI-huVECs (Fig. 16)) | SMILES | Cell viability differences between CCM3^+/+ and CCM3^-/- CI-huVECs [1] | Cell viability ([1]; Fig. 15) | EC morphology / endothelial phenotype (CI-huVECs) | Knockout allele frequencies [2] | Apoptosis / caspase-3 activation (caspase-3; Fig. 16) | Reversal of the NSC59984 (10 µM) effect on clonal expansion of CCM3^-/- cells ([2]; UC2288 1 to 10 µM together with NSC59984 10 µM (Fig. 28)) |
| --- | --- | --- | --- | --- | --- | --- | --- |
|  | CC(C)S(=O)(=O)c1ccc2nccc(Nc3ccc4scnc4c3)c2c1 [GSK-872] | increased the viability of CCM3^-/- CI-huVECs | increased cell viability at low concentrations | more compact EC morphology | 65.1% | induced moderate caspase-3 activation |  |
|  | O=C(Nc1ccc(Cl)c(C(F)(F)F)c1)NC1CCC(Oc2ccc(C(F)(F)F)cn2)CC1 (stereo not shown) [UC2288, reference compound] |  |  |  |  |  | could not be reversed |
| did not increase caspase-3 activities | C=C1C(=O)O[C@@H]2C[C@@]3(C)CCCC(=C)[C@@H]3C[C@H]12 [isoalantolactone, reference compound] | No cell viability differences |  | induced an abnormal endothelial phenotype and significant cell death | 7.7% |  |  |
